How the values were obtained:
wild oat = assay: Test B pre/postemergence wild oat; format: in vivo, Avena fatua; details: for Plant response rating, Wild oats: scale of 0 to 10 where 0 is no effect and 10 is complete control
In short: (§1)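 Herbicidal effect was estimated by eye on a ten-point control scale after plants spent twelve to sixteen days in a greenhouse following soil or foliar treatment. Foliar sprays targeted plants at one to four leaves; all doses were formulated in a non-phytotoxic solvent with surfactant.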

giant foxtail = assay: Test B pre/postemergence giant foxtail; format: in vivo, Setaria faberii; details: for Plant response rating, Giant foxtail: scale of 0 to 10 where 0 is no effect and 10 is complete control
In short: as §1

duck salad = assay: Test B flood test duck salad; format: in vivo, Heteranthera limosa
In short: (§2)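 Flood test on plants grown to the 2-leaf stage; treated plants kept in greenhouse twelve to sixteen days, then visually rated against controls on a 0 (no effect) to 10 (complete control) scale.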

pigweed = assay: Test B pre/postemergence pigweed; format: in vivo, Amaranthus retroflexus; details: for Plant response rating, Redroot pigweed: scale of 0 to 10 where 0 is no effect and 10 is complete control
In short: as §1

smallflower flatsedge = assay: Test B flood test smallflower flatsedge; format: in vivo, Cyperus difformis
In short: as §2

blackgrass = assay: Test B pre/postemergence blackgrass; format: in vivo, Alopecurus myosuroides; details: for Plant response rating, Blackgrass: scale of 0 to 10 where 0 is no effect and 10 is complete control
In short: as §1

morningglory = assay: Test B pre/postemergence morningglory; format: in vivo, Ipomoea hederacea; details: for Plant response rating, Morningglory: scale of 0 to 10 where 0 is no effect and 10 is complete control
In short: as §1

rape = assay: Test B pre/postemergence rape; format: in vivo, Brassica napus; details: for Plant response rating, Rape: scale of 0 to 10 where 0 is no effect and 10 is complete control
In short: as §1

bedstraw = assay: Test B pre/postemergence bedstraw; format: in vivo, Galium aparine; details: Postemergence, scale 0 to 10 (0 no effect, 10 complete control)
In short: as §1

sugar beet = assay: Test B pre/postemergence sugar beet; format: in vivo, Beta vulgaris; details: for Plant response rating, Sugarbeets: scale of 0 to 10 where 0 is no effect and 10 is complete control
In short: as §1

wheat = assay: Test B pre/postemergence wheat; format: in vivo, Triticum aestivum; details: for Plant response rating, Wheat: scale of 0 to 10 where 0 is no effect and 10 is complete control
In short: as §1

cocklebur = assay: Test B pre/postemergence cocklebur; format: in vivo, Xanthium strumarium; details: for Plant response rating, Cocklebur: scale of 0 to 10 where 0 is no effect and 10 is complete control
In short: as §1

soybean = assay: Test B pre/postemergence soybean; format: in vivo, Glycine max; details: for Plant response rating, Soybean: scale of 0 to 10 where 0 is no effect and 10 is complete control
In short: as §1

purple nutsedge = assay: Test B pre/postemergence purple nutsedge; format: in vivo, Cyperus rotundus; details: for Plant response rating, Nutsedge: scale of 0 to 10 where 0 is no effect and 10 is complete control
In short: as §1

surinam grass = assay: Test B pre/postemergence surinam grass; format: in vivo, Brachiaria decumbens; details: for Plant response rating, B. signalgrass: scale of 0 to 10 where 0 is no effect and 10 is complete control
In short: as §1

bamyardgrass = assay: Test B flood test barnyardgrass; format: in vivo, Echinochloa crus-galli
In short: as §2

[1] = Postemergence, Rate 31 g/ha, visual rating, scale 0 to 10 (0 no effect, 10 complete control)
[2] = Postemergence, Rate 250 g/ha, scale 0 to 10
[3] = Preemergence, Rate 250 g/ha, scale 0 to 10, 0 is no effect, 10 is complete control
[4] = Rate 62 g/ha, Postemergence, scale 0 to 10 (0 no effect, 10 complete control)
[5] = Rate 125 g/ha, Postemergence, scale 0 to 10, 0 is no effect, 10 is complete control
[6] = Preemergence, Rate 31 g/ha, visual rating, scale 0 to 10 (0 no effect, 10 complete control)
[7] = Rate 31 g/ha, Pre-emergence section (flood test species), scale 0 to 10
[8] = Rate 62 g/ha, flood test species, Pre-emergence, visual evaluation after twelve to sixteen days
[9] = Rate 125 g/ha, under heading Pre-emergence, flood test species, visual evaluation after twelve to sixteen days
[10] = Rate 250 g/ha, Pre-emergence (flood test species), scale 0 to 10, 0 is no effect, 10 is complete control

Cc1nc(C)c(C(C)n2c(=O)on(C(=O)N(c3ccccc3)C(C)C)c2=O)s1 (stereo not drawn) [Compound 442]
0: Wild oats plant response rating (wild oat; [1]) | Wild oats plant response rating (wild oat; [2]) | Plant response rating, Wild oats (wild oat; Preemergence, Rate 62 g/ha) | Plant response rating, Wild oats (wild oat; Preemergence, Rate 125 g/ha) | Wild oats plant response rating (wild oat; [3]) | Wild oats plant response rating (wild oat; [4]) | Wild oats plant response rating (wild oat; [5]) | Giant foxtail plant response rating (giant foxtail; [1]) | Giant foxtail plant response rating (giant foxtail; [2]) | Giant foxtail plant response rating (giant foxtail; [6]) | Plant response rating, Giant foxtail (giant foxtail; Preemergence, Rate 62 g/ha) | Plant response rating, Giant foxtail (giant foxtail; Preemergence, Rate 125 g/ha) | Giant foxtail plant response rating (giant foxtail; [4]) | Giant foxtail plant response rating (giant foxtail; [5]) | Ducksalad plant response rating (duck salad; [7]) | Plant response rating, Ducksalad (0 to 10 scale, 0 is no effect, 10 is complete control) (duck salad; [8]) | Ducksalad plant response rating (0 to 10 scale, 0 is no effect, 10 is complete control) (duck salad; [9]) | Ducksalad plant response rating (duck salad; [10]) | Redroot pigweed plant response rating (pigweed; [1]) | Redroot pigweed plant response rating (pigweed; [2]) | Plant response rating, Redroot pigweed (pigweed; Preemergence, Rate 62 g/ha) | Plant response rating, Redroot pigweed (pigweed; Preemergence, Rate 125 g/ha) | Redroot pigweed plant response rating (pigweed; [3]) | Redroot pigweed plant response rating (pigweed; [4]) | Redroot pigweed plant response rating (pigweed; [5]) | S. Flatsedge plant response rating (smallflower flatsedge; [7]) | Plant response rating, S. Flatsedge (0 to 10 scale, 0 is no effect, 10 is complete control) (smallflower flatsedge; [8]) | S. Flatsedge plant response rating (0 to 10 scale, 0 is no effect, 10 is complete control) (smallflower flatsedge; [9]) | S. Flatsedge plant response rating (smallflower flatsedge; [10]) | Blackgrass plant response rating (blackgrass; [1]) | Blackgrass plant response rating (blackgrass; [2]) | Blackgrass plant response rating (blackgrass; [6]) | Plant response rating, Blackgrass (blackgrass; Preemergence, Rate 62 g/ha) | Plant response rating, Blackgrass (blackgrass; Preemergence, Rate 125 g/ha) | Blackgrass plant response rating (blackgrass; [3]) | Blackgrass plant response rating (blackgrass; [4]) | Blackgrass plant response rating (blackgrass; [5]) | Plant response rating, Morningglory (morningglory; Preemergence, Rate 62 g/ha) | Plant response rating, Morningglory (morningglory; Preemergence, Rate 125 g/ha) | Morningglory plant response rating (morningglory; [3]) | Rape plant response rating (rape; [1]) | Rape plant response rating (rape; [2]) | Plant response rating, Rape (rape; Preemergence, Rate 62 g/ha) | Plant response rating, Rape (rape; Preemergence, Rate 125 g/ha) | Rape plant response rating (rape; [3]) | Rape plant response rating (rape; [4]) | Rape plant response rating (rape; [5]) | Bedstraw plant response rating (bedstraw; Rate 31 g/ha, visual rating) | Bedstraw plant response rating (bedstraw; Rate 62 g/ha) | Sugarbeets plant response rating (sugar beet; [1]) | Sugarbeets plant response rating (sugar beet; [2]) | Plant response rating, Sugarbeets (sugar beet; Preemergence, Rate 62 g/ha) | Plant response rating, Sugarbeets (sugar beet; Preemergence, Rate 125 g/ha) | Sugarbeets plant response rating (sugar beet; [3]) | Sugarbeets plant response rating (sugar beet; [4]) | Sugarbeets plant response rating (sugar beet; [5]) | Wheat plant response rating (wheat; [1]) | Wheat plant response rating (wheat; [2]) | Plant response rating, Wheat (wheat; Preemergence, Rate 62 g/ha) | Plant response rating, Wheat (wheat; Preemergence, Rate 125 g/ha) | Wheat plant response rating (wheat; [3]) | Wheat plant response rating (wheat; [4]) | Wheat plant response rating (wheat; [5]) | Cocklebur plant response rating (cocklebur; [1]) | Cocklebur plant response rating (cocklebur; [2]) | Cocklebur plant response rating (cocklebur; [6]) | Plant response rating, Cocklebur (cocklebur; Preemergence, Rate 62 g/ha) | Plant response rating, Cocklebur (cocklebur; Preemergence, Rate 125 g/ha) | Cocklebur plant response rating (cocklebur; [3]) | Cocklebur plant response rating (cocklebur; [4]) | Cocklebur plant response rating (cocklebur; [5]) | Soybean plant response rating (soybean; [1]) | Soybean plant response rating (soybean; [2]) | Plant response rating, Soybean (soybean; Preemergence, Rate 62 g/ha) | Plant response rating, Soybean (soybean; Preemergence, Rate 125 g/ha) | Soybean plant response rating (soybean; [3]) | Soybean plant response rating (soybean; [4]) | Soybean plant response rating (soybean; [5]) | Nutsedge plant response rating (purple nutsedge; [1]) | Nutsedge plant response rating (purple nutsedge; [2]) | Plant response rating, Nutsedge (purple nutsedge; Preemergence, Rate 62 g/ha) | Plant response rating, Nutsedge (purple nutsedge; Preemergence, Rate 125 g/ha) | Nutsedge plant response rating (purple nutsedge; [3]) | Nutsedge plant response rating (purple nutsedge; [4]) | Nutsedge plant response rating (purple nutsedge; [5]) | B. signalgrass plant response rating (surinam grass; [1]) | B. signalgrass plant response rating (surinam grass; Postemergence, Rate 250 g/ha, scale 0 to 10, 0 no effect, 10 complete control) | B. signalgrass plant response rating (surinam grass; [6]) | Plant response rating, B. signalgrass (surinam grass; Preemergence, Rate 62 g/ha) | Plant response rating, B. signalgrass (surinam grass; Preemergence, Rate 125 g/ha) | B. signalgrass plant response rating (surinam grass; [3]) | B. signalgrass plant response rating (surinam grass; [4]) | B. signalgrass plant response rating (surinam grass; [5]) | Barnyardgrass plant response rating (bamyardgrass; [7]) | Plant response rating, Barnyardgrass (0 to 10 scale, 0 is no effect, 10 is complete control) (bamyardgrass; [8]) | Barnyardgrass plant response rating (0 to 10 scale, 0 is no effect, 10 is complete control) (bamyardgrass; [9]) | Barnyardgrass plant response rating (bamyardgrass; [10])
3: Giant foxtail plant response rating (giant foxtail; [3])
1: Morningglory plant response rating (morningglory; [1])
7: Morningglory plant response rating (morningglory; [2])
4: Morningglory plant response rating (morningglory; [4]) | Morningglory plant response rating (morningglory; [5])
